These results are taken from article PMC8504577, “Evaluation of a Clinically Relevant Drug–Drug Interaction Between Rosuvastatin and Clopidogrel and the Risk of Hepatotoxicity” (Frontiers in Pharmacology, 2021).

One data set addresses T1, OATP1B3 (Homo sapiens, UniProt Q9NPD5).
T1 sequence (Q9NPD5 1-702): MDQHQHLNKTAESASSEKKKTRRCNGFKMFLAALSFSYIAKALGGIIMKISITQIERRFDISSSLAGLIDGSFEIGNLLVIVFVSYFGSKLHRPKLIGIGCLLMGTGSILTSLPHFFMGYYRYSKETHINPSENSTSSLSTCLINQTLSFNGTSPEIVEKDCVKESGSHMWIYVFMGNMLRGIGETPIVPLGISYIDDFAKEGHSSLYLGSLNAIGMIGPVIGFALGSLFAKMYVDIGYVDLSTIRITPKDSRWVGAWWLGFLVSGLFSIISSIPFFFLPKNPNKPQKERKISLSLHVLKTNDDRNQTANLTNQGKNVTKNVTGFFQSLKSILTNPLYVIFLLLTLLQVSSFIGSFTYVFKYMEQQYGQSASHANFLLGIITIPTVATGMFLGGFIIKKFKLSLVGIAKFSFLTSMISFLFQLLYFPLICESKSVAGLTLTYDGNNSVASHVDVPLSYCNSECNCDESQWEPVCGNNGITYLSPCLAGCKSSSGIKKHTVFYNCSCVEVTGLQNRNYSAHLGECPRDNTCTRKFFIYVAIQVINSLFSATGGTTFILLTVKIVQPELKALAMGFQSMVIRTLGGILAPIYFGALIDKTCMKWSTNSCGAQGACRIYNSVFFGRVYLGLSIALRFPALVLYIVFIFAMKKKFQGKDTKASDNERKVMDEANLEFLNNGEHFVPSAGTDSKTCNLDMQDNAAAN
Put plainly: cell-based. The protocol:
The OATP1B1, OATP1B3, and mock cells were cultured in the DMEM medium containing 10% fetal bovine serum, penicillin–streptomycin solution (100 U/mL and 0.1 mg/ml), and 0.5 mg/ml geneticin at 37°C in the presence of 5% CO2. The cells were seeded in a 24-well plate at a density of 4×10^5 cells/well and grown for 80–90% confluence. […] After washing the cells three times with transporter buffer at 4°C, the cells were lysed with liquid nitrogen. The lysates were precipitated with methanol and centrifuged at 12,000 rpm at 4°C for 5 min. The supernatant was analyzed by LC-MS/MS. Protein concentration was determined using the Pierce® BCA Protein Assay Kit. All experiments were performed in triplicate.
Phoenix WinNonlin® 7.1 (Pharsight Corporation, Mountain View, CA, United States) was used to calculate the pharmacokinetic parameters by the noncompartmental method. IC50 values were obtained by a computer-generated nonlinear least squares fit using GraphPad Prism 8.1 (GraphPad Software, San Diego, CA, United States). Statistical analysis was performed using SPSS ver. 22.0 (IBM, Chicago, IL, United States). The results are presented as mean ± S.D., unless otherwise stated. After testing for the homogeneity of variance, statistical analysis was performed with a one-way ANOVA followed by the LSD post hoc test or unpaired Student’s t-test. A probability (p) of less than 0.05, 0.01, and 0.001 was considered to be statistically significant, highly significant, and extremely significant, respectively.

For data set [1] the following is noted: for I2, maximal theoretical gastrointestinal concentration: dose/250 ml; for Imax,u, unbound steady-state plasma peak concentration: fu×I1.
Data set [2] has as its system BCRP. Particulars: read-out: IC50 BCRP; BCRP-mediated RSV transport, Caco-2 cells; ref Elsby et al. (2016); cited from earlier work. (In general: Passage across Caco-2 layers is used to estimate intestinal permeability.)
The target of data set [3] is T2, BCRP (Homo sapiens, UniProt Q9UNQ0).
T2 sequence (Q9UNQ0 1-655): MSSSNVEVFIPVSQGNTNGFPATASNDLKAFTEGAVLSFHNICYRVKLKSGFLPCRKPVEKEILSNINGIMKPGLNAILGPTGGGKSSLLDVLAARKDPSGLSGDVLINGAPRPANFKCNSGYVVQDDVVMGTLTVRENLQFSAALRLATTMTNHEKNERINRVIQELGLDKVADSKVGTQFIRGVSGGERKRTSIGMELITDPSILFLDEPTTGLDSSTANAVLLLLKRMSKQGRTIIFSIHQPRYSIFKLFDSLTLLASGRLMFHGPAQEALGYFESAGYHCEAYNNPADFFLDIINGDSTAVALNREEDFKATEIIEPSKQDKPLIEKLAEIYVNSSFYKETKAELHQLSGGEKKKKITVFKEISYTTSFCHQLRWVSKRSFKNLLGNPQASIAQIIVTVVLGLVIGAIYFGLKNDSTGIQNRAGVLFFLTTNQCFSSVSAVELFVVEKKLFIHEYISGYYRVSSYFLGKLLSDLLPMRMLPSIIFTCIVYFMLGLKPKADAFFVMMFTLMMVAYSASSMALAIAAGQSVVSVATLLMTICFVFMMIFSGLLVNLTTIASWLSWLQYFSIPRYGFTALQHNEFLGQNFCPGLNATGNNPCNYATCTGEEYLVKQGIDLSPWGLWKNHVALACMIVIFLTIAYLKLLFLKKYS
As to the kind of experiment: Inhibition of RSV transport in BCRP-expressing membrane vesicles. It is filed as biochemical. On the set-up: purchased GenoMembrane Co., Ltd. (Yokohama, Japan) GM0008; host or cells: Sf9 insect cells. The protocol: The vesicular transport activity was determined by the 96-well rapid filtration method in BCRP- and MRP2-expressing membrane vesicles. […] Meanwhile, 5 μL RSV (final concentration, 1 μM) and 20 μL reagent C2 were pre-incubated at 37°C for 5 min. Then, the transport was initiated by mixing them in a 50 μL reaction system and incubated for the designated time at 37°C. The transport was terminated by adding 200 μL of cold buffer B2 at 4°C. Then, the mixture was filtered using a 96-well filter plate. After washing the vesicles five times with 200 μL of cold buffer B2 at 4°C, the vesicles were lysed with 50 μL of 80% […] twice and then centrifuged at 2000 rpm/min for 2 min. Lysates were collected and then centrifuged at 12,000 rpm/min for 5 min. The supernatants were injected onto the LC-MS/MS. The same procedures were applied to AMP-containing samples except that reagent D2 was used instead of reagent C2. All experiments were performed in quadruplicate.
Statistical analysis was performed using SPSS ver. 22.0 (IBM, Chicago, IL, United States).

The next data set has as its system rats. Put plainly: Biochemical examination of liver function indices in rats. The format is in vivo, Sprague-Dawley rats. Particulars: rat plasma.
[4] abbreviates: Group II single i.v. dose RSV + vehicle control.
Setting [5] is: Group IV single p.o. dose RSV + vehicle control.

Entries after “also recorded” stand apart in the source; their conditions may differ. Read-outs that look alike come from different tables or passages of the source.

From the text for rats: After the last sample in the plasma pharmacokinetic study, all rats were deeply anesthetized and exsanguinated by severing the abdominal aorta. Blood and liver samples were harvested. The plasma was used for the assay of alanine aminotransferase (ALT), aspartate aminotransferase (AST), total bilirubin (TBIL), unconjugated bilirubin (IBIL), and conjugated bilirubin (DBIL) by an automatic analyzer (Beckman Coulter, Brea, CA, United States).

As usually defined, the IC50 is the point on the concentration scale where inhibition reaches its midpoint. By inhibition is commonly meant the change of the read-out against control, counted positive when it falls. On to `COC(=O)[C@H](c1ccccc1Cl)N1CCc2sccc2C1` [CP, clopidogrel], for which the IC50 at OATP1B3 is greater than 50 µM; in the data set with BCRP [2], 63 µM; against BCRP [3] (IC50 BCRP-mediated RSV transport, 1 μM RSV, membrane vesicles), roughly 0.001 µM. In addition, the “Inhibition of OATP1B3-mediated RSV transport” value at OATP1B3 (1 μM RSV, CPC 0.05–50 μM) is recorded as “did not inhibit; also recorded: did not affect”. For the same compound, the “Iin,max,u, steady-state unbound liver inlet concentration” value turned out to be 0.31 µM in data set [1] (75 mg CP) and 1.24 µM in data set [1] (300 mg CP). Further, the “I2, maximal theoretical gastrointestinal concentration” value was 932.19 µM in data set [1] (75 mg CP) and 3,728.77 μM in data set [1] (300 mg CP). The “Imax,u, unbound steady-state plasma peak concentration” value was determined as 0.00002 µM in data set [1] (75 mg CP) and 0.00018 µM in data set [1] (300 mg CP). The inhibition at 0.001 μM against BCRP [3] (human) was 56.9%.

`CC(C)c1nc(N(C)S(C)(=O)=O)nc(-c2ccc(F)cc2)c1/C=C/[C@@H](O)C[C@@H](O)CC(=O)O` [RSV, rosuvastatin]: in the data set with rats (setting [4]), the ALT came to 54.00 ± 14.17 U/L, the AST worked out at 210.50 ± 36.59 U/L, the DBIL worked out at 1.12 ± 0.11 µmol/L and the IBIL was 0.88 ± 0.18 µmol/L. Moreover, in the data set on rats (setting [4]), the TBIL stood at 2.00 ± 0.22 µmol/L. In addition, in the data set with rats (setting [5]), the ALT is reported as 52.00 ± 6.68 U/L, the AST is 212.50 ± 33.72 U/L, the DBIL stood at 0.58 ± 0.33 µmol/L and the IBIL amounted to 0.57 ± 0.36 µmol/L. Besides, the TBIL in the data set with rats (setting [5]) came to 1.13 ± 0.42 µmol/L.
